Reference: patent US20240092784A1, “CONDENSED HETEROCYCLIC COMPOUND” (NISSAN CHEMICAL CORPORATION, priority 2020, published 2024)
pIC50: −log10 of the molar value.

Molecular target: human SPR (Homo sapiens (Human), UniProt P35270)
Experiment: Evaluation Example 2: Measurement of human SPR inhibitory activity (seven concentrations, sepiapterin absorbance at 420 nm)
Assay type: biochemical
Conditions: Evaluation Example 2, seven concentrations 0.14 nM to 100 nM, 240 minutes at room temperature, read-out: IC50
Procedure, shortened: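 His-tagged full-length human SPR (1-261) was expressed in E. coli and the tag removed. Enzyme at 150 ng/mL in 100 mM Tris-HCl pH 7.5/0.01% BSA was mixed with compound (0.14–100 nM, seven points), 120 μM sepiapterin and 160 μM NADPH, both as added-solution concentrations. After 240 min at room temperature, remaining sepiapterin was read at 420 nm to give percent inhibition.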

Sequence of human SPR (P35270 whole entry): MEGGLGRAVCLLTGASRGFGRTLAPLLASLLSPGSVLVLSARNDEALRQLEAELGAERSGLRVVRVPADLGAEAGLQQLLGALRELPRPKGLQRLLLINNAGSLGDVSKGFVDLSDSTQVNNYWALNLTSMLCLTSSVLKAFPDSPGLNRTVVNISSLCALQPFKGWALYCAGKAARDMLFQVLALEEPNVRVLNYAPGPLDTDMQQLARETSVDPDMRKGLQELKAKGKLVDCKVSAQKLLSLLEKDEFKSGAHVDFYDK

| Compound | pIC50 |
| --- | --- |
| CC(C)Cn1c(=O)c(C(=O)NC2CC2)c(O)n2ncc(/C=C/C(=O)N(C)CC(C)(C)O)c12 [compound 518, (E)-N-Cyclopropyl-7-hydroxy-3-(3-((2-hydroxy-2-methylpropyl)(methyl)amino)-3-oxoprop-1-en-1-yl)-4-isobutyl-5-oxo-4,5-dihydropyrazolo[1,5-a]pyrimidine-6-carboxamide] | 9.18 |
| COCCN(C)C(=O)/C=C/c1cnn2c(O)c(C(=O)NC3CC3)c(=O)n(CC(C)C)c12 [compound 519, (E)-N-Cyclopropyl-7-hydroxy-4-isobutyl-3-(3-((2-methoxyethyl)(methyl)amino)-3-oxoprop-1-en-1-yl)-5-oxo-4,5-dihydropyrazolo[1,5-a]pyrimidine-6-carboxamide] | 9.17 |
| CC(C)Cn1c(=O)c(C(=O)NC2CC2)c(O)n2ncc(/C=C/C(=O)N3CCC[C@@H](CO)C3)c12 [compound 520, (R,E)-N-Cyclopropyl-7-hydroxy-3-(3-(3-(hydroxymethyl)piperidin-1-yl)-3-oxoprop-1-en-1-yl)-4-isobutyl-5-oxo-4,5-dihydropyrazolo[1,5-a]pyrimidine-6-carboxamide] | 9.11 |
| CC(C)Cn1c(=O)c(C(=O)NC2CC2)c(O)n2ncc(/C=C/C(=O)N3CCO[C@H](CO)C3)c12 [compound 521, (S,E)-N-Cyclopropyl-7-hydroxy-3-(3-(2-(hydroxymethyl)morpholino)-3-oxoprop-1-en-1-yl)-4-isobutyl-5-oxo-4,5-dihydropyrazolo[1,5-a]pyrimidine-6-carboxamide] | 9.23 |
| CCN(C)C(=O)/C=C/c1cnn2c(O)c(C(=O)NC3CC3)c(=O)n(CC(C)C)c12 [compound 522, (E)-N-Cyclopropyl-3-(3-(ethyl(methyl)amino)-3-oxoprop-1-en-1-yl)-7-hydroxy-4-isobutyl-5-oxo-4,5-dihydropyrazolo[1,5-a]pyrimidine-6-carboxamide] | 9.11 |
| CC(C)Cn1c(=O)c(C(=O)NC2CC2)c(O)n2ncc(/C=C/C(=O)N(C)C3CCOCC3)c12 [compound 523, (E)-N-Cyclopropyl-7-hydroxy-4-isobutyl-3-(3-(methyl(tetrahydro-2H-pyran-4-yl)amino)-3-oxoprop-1-en-1-yl)-5-oxo-4,5-dihydropyrazolo[1,5-a]pyrimidine-6-carboxamide] | 9.15 |
| CC(C)Cn1c(=O)c(C(=O)NC2CC2)c(O)n2ncc(/C=C/C(=O)N(C)CCC#N)c12 [compound 524, (E)-3-(3-((2-Cyanoethyl)(methyl)amino)-3-oxoprop-1-en-1-yl)-N-cyclopropyl-7-hydroxy-4-isobutyl-5-oxo-4,5-dihydropyrazolo[1,5-a]pyrimidine-6-carboxamide] | 9.14 |
| CC(C)Cn1c(=O)c(C(=O)NC2CC2)c(O)n2ncc(/C=C/C(=O)N3CCOC[C@@H]3CO)c12 [compound 525, (S,E)-N-Cyclopropyl-7-hydroxy-3-(3-(3-(hydroxymethyl)morpholino)-3-oxoprop-1-en-1-yl)-4-isobutyl-5-oxo-4,5-dihydropyrazolo[1,5-a]pyrimidine-6-carboxamide] | 9.19 |
| CC(C)Cn1c(=O)c(C(=O)NC2CC2)c(O)n2ncc(/C=C/C(=O)N3CCOC[C@H]3CO)c12 [compound 526, (R,E)-N-Cyclopropyl-7-hydroxy-3-(3-(3-(hydroxymethyl)morpholino)-3-oxoprop-1-en-1-yl)-4-isobutyl-5-oxo-4,5-dihydropyrazolo[1,5-a]pyrimidine-6-carboxamide] | 9.17 |
| CC(C)Cn1c(=O)c(C(=O)NC2CCC2)c(O)n2ncc(/C=C/C(=O)N3CCOCC3)c12 [compound 527, (E)-N-Cyclobutyl-7-hydroxy-4-isobutyl-3-(3-morpholino-3-oxoprop-1-en-1-yl)-5-oxo-4,5-dihydropyrazolo[1,5-a]pyrimidine-6-carboxamide] | 9.13 |
| CC(C)Cn1c(=O)c(C(=O)NC2CC2)c(O)n2ncc(/C=C/C(=O)N3CCC[C@H](CO)C3)c12 [compound 528, (S,E)-N-Cyclopropyl-7-hydroxy-3-(3-(3-(hydroxymethyl)piperidin-1-yl)-3-oxoprop-1-en-1-yl)-4-isobutyl-5-oxo-4,5-dihydropyrazolo[1,5-a]pyrimidine-6-carboxamide] | 9.07 |
| CC(C)Cn1c(=O)c(C(=O)NC2CC2)c(O)n2ncc(/C=C/C(=O)N3CCO[C@@H](C(F)(F)F)C3)c12 [compound 529, (R,E)-N-Cyclopropyl-7-hydroxy-4-isobutyl-5-oxo-3-(3-oxo-3-(2-(trifluoromethyl)morpholino)prop-1-en-1-yl)-4,5-dihydropyrazolo[1,5-a]pyrimidine-6-carboxamide] | 8.99 |
| CC(C)Cn1c(=O)c(C(=O)NC2CC2)c(O)n2ncc(/C=C/C(=O)N3CCO[C@H](C(F)(F)F)C3)c12 [compound 530, (S,E)-N-Cyclopropyl-7-hydroxy-4-isobutyl-5-oxo-3-(3-oxo-3-(2-(trifluoromethyl)morpholino)prop-1-en-1-yl)-4,5-dihydropyrazolo[1,5-a]pyrimidine-6-carboxamide] | 8.94 |
| COC[C@H]1COCCN1C(=O)/C=C/c1cnn2c(O)c(C(=O)NC3CC3)c(=O)n(CC(C)C)c12 [compound 531, (S,E)-N-Cyclopropyl-7-hydroxy-4-isobutyl-3-(3-(3-(methoxymethyl)morpholino)-3-oxoprop-1-en-1-yl)-5-oxo-4,5-dihydropyrazolo[1,5-a]pyrimidine-6-carboxamide] | 9.14 |
| COC[C@@H]1COCCN1C(=O)/C=C/c1cnn2c(O)c(C(=O)NC3CC3)c(=O)n(CC(C)C)c12 [compound 532, (R,E)-N-Cyclopropyl-7-hydroxy-4-isobutyl-3-(3-(3-(methoxymethyl)morpholino)-3-oxoprop-1-en-1-yl)-5-oxo-4,5-dihydropyrazolo[1,5-a]pyrimidine-6-carboxamide] | 9.26 |
| CC(C)Cn1c(=O)c(C(=O)NC2CC2)c(O)n2ncc(/C=C/C(=O)N3C4CCC3COC4)c12 [compound 533, (E)-3-(3-(3-Oxa-8-azabicyclo[3.2.1]octan-8-yl)-3-oxoprop-1-en-1-yl)-N-cyclopropyl-7-hydroxy-4-isobutyl-5-oxo-4,5-dihydropyrazolo[1,5-a]pyrimidine-6-carboxamide] | 9.19 |
| CC(C)Cn1c(=O)c(C(=O)NC2CC2)c(O)n2ncc(/C=C/C(=O)N3CCOC[C@H]3C(F)(F)F)c12 [compound 534, (S,E)-N-Cyclopropyl-7-hydroxy-4-isobutyl-5-oxo-3-(3-oxo-3-(3-(trifluoromethyl)morpholino)prop-1-en-1-yl)-4,5-dihydropyrazolo[1,5-a]pyrimidine-6-carboxamide] | 9.06 |
| CC(C)Cn1c(=O)c(C(=O)NC2CC2)c(O)n2ncc(/C=C/C(=O)N3CCCCO3)c12 [compound 535, (E)-3-(3-(1,2-Oxazinan-2-yl)-3-oxoprop-1-en-1-yl)-N-cyclopropyl-7-hydroxy-4-isobutyl-5-oxo-4,5-dihydropyrazolo[1,5-a]pyrimidine-6-carboxamide] | 9.04 |
| CC(C)Cn1c(=O)c(C(=O)NC2CC2)c(O)n2ncc(/C=C/C(=O)N3CCC[C@H]3C)c12 [compound 536, (R,E)-N-Cyclopropyl-7-hydroxy-4-isobutyl-3-(3-(2-methylpyrrolidine-1-yl)-3-oxoprop-1-en-1-yl)-5-oxo-4,5-dihydropyrazolo[1,5-a]pyrimidine-6-carboxamide] | 9.04 |
| CC(C)Cn1c(=O)c(C(=O)NC2CC2)c(O)n2ncc(/C=C/C(=O)N3CCCC3(C)C)c12 [compound 537, (E)-N-Cyclopropyl-3-(3-(2,2-dimethylpyrrolidin-1-yl)-3-oxoprop-1-en-1-yl)-7-hydroxy-4-isobutyl-5-oxo-4,5-dihydropyrazolo[1,5-a]pyrimidine-6-carboxamide] | 9.07 |
| CC(C)Cn1c(=O)c(C(=O)NC2CC2)c(O)n2ncc(/C=C/C(=O)N3C[C@H]4C[C@@H]3CO4)c12 [compound 538, 3-((E)-3-((1R,4R)-2-Oxa-5-azabicyclo[2.2.1]heptan-5-yl)-3-oxoprop-1-en-1-yl)-N-cyclopropyl-7-hydroxy-4-isobutyl-5-oxo-4,5-dihydropyrazolo[1,5-a]pyrimidine-6-carboxamide] | 9.16 |
| CC(C)Cn1c(=O)c(C(=O)NC2CC2)c(O)n2ncc(/C=C/C(=O)N3C[C@@H]4C[C@H]3CO4)c12 [compound 539, 3-((E)-3-((1S,4S)-2-Oxa-5-azabicyclo[2.2.1]heptan-5-yl)-3-oxoprop-1-en-1-yl)-N-cyclopropyl-7-hydroxy-4-isobutyl-5-oxo-4,5-dihydropyrazolo[1,5-a]pyrimidine-6-carboxamide] | 9.19 |
| CC[C@@H]1COCCN1C(=O)/C=C/c1cnn2c(O)c(C(=O)NC3CC3)c(=O)n(CC(C)C)c12 [compound 540, (R,E)-N-Cyclopropyl-3-(3-(3-ethylmorpholino)-3-oxoprop-1-en-1-yl)-7-hydroxy-4-isobutyl-5-oxo-4,5-dihydropyrazolo[1,5-a]pyrimidine-6-carboxamide] | 9.18 |
| CC(C)Cn1c(=O)c(C(=O)NC2CC2)c(O)n2ncc(/C=C/C(=O)N3CCOCC34CC4)c12 [compound 541, (E)-N-Cyclopropyl-7-hydroxy-4-isobutyl-5-oxo-3-(3-oxo-3-(7-oxa-4-azaspiro[2.5]octan-4-yl)prop-1-en-1-yl)-4,5-dihydropyrazolo[1,5-a]pyrimidine-6-carboxamide] | 9.09 |
| CC(C)Cn1c(=O)c(C(=O)NC2CC2)c(O)n2ncc(/C=C/C(=O)N3C4CCCC3COC4)c12 [compound 542, (E)-3-(3-(3-Oxa-9-azabicyclo[3.3.1]nonan-9-yl)-3-oxoprop-1-en-1-yl)-N-cyclopropyl-7-hydroxy-4-isobutyl-5-oxo-4,5-dihydropyrazolo[1,5-a]pyrimidine-6-carboxamide] | 9.11 |
| CC(C)Cn1c(=O)c(C(=O)NC2CC2)c(O)n2ncc(/C=C/C(=O)N3CCCCCO3)c12 [compound 543, (E)-3-(3-(1,2-Oxazepan-2-yl)-3-oxoprop-1-en-1-yl)-N-cyclopropyl-7-hydroxy-4-isobutyl-5-oxo-4,5-dihydropyrazolo[1,5-a]pyrimidine-6-carboxamide] | 9.01 |
